US5089520A, “Method of inhibiting virus” (priority 1990, dated 1992)
Read-outs that look alike come from different tables or passages of the source. Each block holds one compound with its values, some of them ahead of it.

Legend:
[1] = system: human leukemic T-cell line; assay: in vitro; format: cell-based; parameters: key to T-cells Control (score): 0: complete CPE; ±: most cells dead; 1+: about 1/4 of cells alive; 2+: about 1/2 of cells alive; 3+: about 3/4 of cells alive; 4+: all cells appear alive; settings: control cells, 3 weeks
Experimental: (§1) After a suitable period of incubation, the cultures are scored for the presence of so-called syncytial cells (giant cells). Typical examples of such a test for the evaluation of inhibitors of HIV have been disclosed by Fung et al., Bio/Technology 5, 940-946 (1987); Tyms et al., Lancet, Oct. 31, 1987, pp. 1025-1026; Gruters et al., Nature 330, 74-77 (1987); and Walker et al., Proc Natl. Acad. Sci. USA 84, 8120-8124 (1987).
(§2) In the present case, a human leukemic T-cell line was used which is described by Karpas, Leuk. Res. 1, 35-49 (1977). These cells were seeded into microtiter wells at a concentration of 5×10^3 cells per 0.2 ml of culture medium in each well. RPMI-1640 supplemented with 10% fetal calf serum was used as the culture medium. Each of the test compounds was added to either 4 or 6 wells of the microtiter plate. Two or three of the wells were infected with about 10^3 HIV-1 particles per well and two or three other wells were similarly infected with HV-2 particles. During the following 3 weeks, with a twice weekly change of medium containing the corresponding test compounds, the infected cells were monitored for the appearance of syncytial formations (giant cells) and eventual cytopathic effect (CPE). The non-infected cells were monitored for the possible cytotoxic effect of the test compounds. Likewise, the rate of growth was estimated in relation to growth of the control cells. The cultures were scored on a scale from 0 to 4+ by microscopic examination on the following basis:
(§3) 1+=about 1/4 of cells alive
(§4) 2+=about 1/2 of cells alive
(§5) 3+=about 3/4 of cells alive
(§6) 4+=all cells appear alive

HIV [2] = assay: Anti-HIV activity, CPE reduction in HIV infected T-lymphocytes (Example 14, Table II); format: cell-based; settings: Human immunodeficiency virus 1, T-lymphocyte; for activity at 100 µg/mL: dosage 0.1 mg/ml; for activity at 130 µg/mL: dosage 0.13 mg/ml
Experimental: (§7) Further testing of compounds 1 to 12 for inhibition of HIV replication was carried out to confirm the results of Example 13. To discriminate between specific anti-HIV activity and cytotoxicity, the effects of these compounds on HIV infected and non-infected T-lymphocytes were assessed in parallel. Using the T-cell line and cell free suspensions of HIV prepared from infected cultures, as in Example 13, the concentration of infectious particles (TCID, tissue culture infectious dose) was estimated using an end-point titration where the number of infectious HIV particles in each preparation was determined by the highest dilution which contained infectious HIV, as detected by syncytial formation, cytotoxicity and HIV antigen synthesis after 10 days of culture with 10^4 T-45 cells. Stock solutions of all compounds were prepared by dissolving each compound at a concentration of 1 mg/ml in growth medium. These solutions were filtered and sterilised (0.22 μm). Initially, each compound was tested at concentrations of 0.1 mg/ml and 0.5 mg/ml.
(§8) The following Table II sets forth the cytotoxic activity (% cell death) and the anti-HIV activity (% cytopathic effect, CPE, reduction), for these compounds.

[3] = Cytotoxic activity in non-infected T-lymphocytes (Example 14, Table II); format: cell-based; settings: human, read-out: Cytotoxic Activity (% cell death)
Experimental: as §7, §8

in vitro = format: cell-based, human; parameters: key to T-cells Control (score): 0: complete CPE; ±: most cells dead; 1+: about 1/4 of cells alive; 2+: about 1/2 of cells alive; 3+: about 3/4 of cells alive; 4+: all cells appear alive; settings: human, leukemic t-cell line; same test protocol as Table I; read-out: toxic at (concentration)
Experimental: as §1, §2, §3, §4, §5, §6

HIV [4] = settings: literature, cited from earlier work; for inhibition of HIV / cytopathic effect (in words): in vitro
glycosidase = settings: literature; cited from earlier work
α-glucosidase I = settings: literature; cited from earlier work
HIV [5] = assay: In vitro HIV replication / cytopathic effect assay, HIV-infected T-cells scored 0 to 4+ (Example 13, Table I); format: cell-based; parameters: key to T-cells HIV-infected (score): 0: complete CPE; ±: most cells dead; 1+: about 1/4 of cells alive; 2+: about 1/2 of cells alive; 3+: about 3/4 of cells alive; 4+: all cells appear alive; settings: for HIV inhibition score (inactive, scored as zero): above test protocol (Example 13), concentration not given
Experimental: as §1, §2, §3, §4, §5, §6

HIV virons = settings: literature; cited from earlier work
α-glycosidase = settings: literature; cited from earlier work
mannosidase I = settings: literature; cited from earlier work
[6] = compound concentration 0.3 mg/ml
[7] = compound concentration 0.1 mg/ml
[8] = compound concentration 0.13 mg/ml

T-cells Control (score) [1, 6]: 4+
SMILES: CN1C[C@@H](O)[C@@H](O)[C@H](O)[C@H]1CO [Compound 9, N-Methyl derivative of deoxymannojirimycin]
activity at 300 µg/mL (HIV [2]; dosage 0.3 mg/ml): 25%
cytotoxicity ([3]; dosage 0.3 mg/ml): 0%

SMILES: Cc1cn([C@H]2C[C@H](N=[N+]=[N-])[C@@H](CO)O2)c(=O)[nH]c1=O [AZT, 3'-azido-3'-deoxythymidine, reference compound]
MCC (in vitro): 0.01 µg/mL
inhibition of HIV / cytopathic effect (in words) (HIV [4]): shown to inhibit replication of the virus in vitro

T-cells Control (score) ([1]; compound concentration 0.16 mg/ml): 4+
SMILES: OC[C@@H](O)[C@@H]1NC[C@@H](O)[C@H]1O [Compound 8, 1,4-Dideoxy-1,4-imino-D-talitol]
activity at 160 µg/mL (HIV [2]; dosage 0.16 mg/ml): 25%
cytotoxicity ([3]; dosage 0.16 mg/ml): 0%

SMILES: OC[C@H]1NC[C@H](O)[C@@H](O)[C@@H]1O [deoxynojirimycin (DNJ), deoxynojirimycin]
effect on HIV / virion infectivity (in words) (HIV [4]): positive effect
glycosidase inhibition (in words) (glycosidase): glycosidase inhibitor

T-cells Control (score) [1, 7]: 4+
SMILES: OC[C@H]1[C@H](O)[C@H](O)CN1Cc1ccccc1 [Compound 7, 1,4-dideoxy-1,4-benzylimino-L-ribitol]
activity at 100 µg/mL (HIV [2]): 25%
cytotoxicity ([3]; dosage 0.1 mg/ml): 0%

SMILES: CN1C[C@H](O)[C@@H](O)[C@H](O)[C@H]1CO [N-methyl derivative of deoxynojirimycin]
inhibition of HIV / cytopathic effect (in words) (HIV [4]): having activity against HIV
glucosidase I inhibitory activity (in words) (α-glucosidase I): gluosidase I inhibitory activity

SMILES: OC[C@@H]1[C@@H](O)[C@@H](O)CN1Cc1ccccc1 [1,4-dideoxy-1,4-benzylimino-D-ribitol, 1,4-Dideoxy-1,4-benzylimino-D-ribitol]
HIV inhibition score (inactive, scored as zero) (HIV [5]): zero

SMILES: OC[C@@H]1NC[C@@H](O)[C@H]1O [Compound 3, 1,4-Dideoxy-1,4-imino-L-ribitol]
T-cells Control (score) [1, 8]: 4+
activity at 130 µg/mL (HIV [2]): 25%
cytotoxicity ([3]; dosage 0.13 mg/ml): 0%

SMILES: O[C@H]1[C@H](O)[C@@H](O)CN2CC[C@H](O)[C@H]12 [castanospermine]
inhibition of HIV / cytopathic effect (in words) (HIV [4]): inhibition of the cytopathic effect (CPE)
effect on HIV / virion infectivity (in words) (HIV [4]): only a modest reduction in virion infectivity
glucosidase I inhibitory activity (in words) (α-glucosidase I): α-glucosidase I inhibitor
effect on glycosylation of HIV virons and entry into target cells (in words) (HIV virons): interfere with normal glycosylation of HIV virons, thereby altering the envelope glycoprotein and preventing entry of HIV into target cells

T-cells Control (score) [1, 7]: 4+
SMILES: CN1C[C@H](O)[C@@H](O)[C@@H]1CO [Compound 5]
activity at 100 µg/mL (HIV [2]): 25%
cytotoxicity ([3]; dosage 0.1 mg/ml): 0%

T-cells Control (score) [1, 7]: 4+
SMILES: C[C@@H]1NC(=O)[C@@H](O)[C@H](O)[C@@H]1O [Compound 10, 1,5-dideoxy-1,5-imino-L-fuconolactam]
activity at 100 µg/mL (HIV [2]): 50%
cytotoxicity ([3]; dosage 0.1 mg/ml): 25%

SMILES: O[C@@H]1[C@@H](O)[C@@H](O)CN2CC[C@H](O)[C@@H]12 [L-1,6-diepicastanospermine]
inhibition of HIV / cytopathic effect (in words) (HIV [4]): neither the epimer L-1,6-diepicastanospermine nor the stereoisomer of castanospermine, L-6-epicastanospermine, were found to be inhibitory

SMILES: OC[C@@H]1[C@@H](O)[C@H](O)[C@@H](O)CN1Cc1ccccc1 [N-benzyl derivative]
inhibition of HIV / cytopathic effect (in words) (HIV [4]): Neither the azofuranose analog of glucose nor the N-benzyl derivative were found to have an effect on CPE

SMILES: OC[C@H]1NC[C@H](O)[C@@H]1O [Compound 4, 1,4-Dideoxy-1,4-imino-D-ribitol]
T-cells Control (score) [1, 8]: 4+
activity at 130 µg/mL (HIV [2]): 50%
cytotoxicity ([3]; dosage 0.13 mg/ml): 0%

SMILES: OC[C@H]1NC[C@@H](O)[C@@H]1O [D-enantiomer]
inhibition of HIV / cytopathic effect (in words) (HIV [4]): very little effect on HIV replication

SMILES: OC[C@@H]1NC[C@H](O)[C@H]1O [Compound 2, 1,4-Dideoxy-1,4-imino-L-arabinitol]
T-cells HIV-infected (score) (HIV [5]; compound concentration 0.3 mg/ml, 3 weeks, HIV-1 and HIV-2): 4+
T-cells Control (score) [1, 6]: 4+
activity at 100 µg/mL (HIV [2]): 50%
activity at 500 µg/mL (HIV [2]; dosage 0.5 mg/ml): 100%
cytotoxicity ([3]; dosage 0.1 mg/ml): 0%
inhibition of HIV / cytopathic effect (in words) (HIV [4]): strong HIV inhibitory activity

SMILES: OC[C@H]1NCC[C@@H](O)[C@@H]1O [fagomine]
inhibition of HIV / cytopathic effect (in words) (HIV [4]): no HIV inhibition was observed
α-glycosidase inhibitory activity (in words) (α-glycosidase): α-glycosidase inhibitory activity

T-cells Control (score) ([1]; compound concentration 0.03 mg/ml): 4+
SMILES: COC(=O)CCCCCN1C[C@@H](O)[C@H](O)[C@H](O)[C@@H]1C [Compound 12, 1,5-Dideoxy-1,5-imino-[N-ω-methyl caproate]-L-fucitol]
activity at 100 µg/mL (HIV [2]): 75%
activity at 250 µg/mL (HIV [2]; dosage 0.25 mg/ml): 90%
cytotoxicity ([3]; dosage 0.1 mg/ml): 0%

T-cells Control (score) [1, 7]: 4+
SMILES: CN1[C@H](CO)[C@@H](O)[C@H](O)[C@H]1CO [Compound 1, N-Methyl derivative of dihydroxymethyldihydroxypyrrolidine]
activity at 100 µg/mL (HIV [2]): 25%
cytotoxicity ([3]; dosage 0.1 mg/ml): 0%

SMILES: C[C@@H]1NC[C@@H](O)[C@H](O)[C@@H]1O [1,5-dideoxy-1,5-imino-L-fucitol, 1,5-Dideoxy-1,5-imino-L-fucitol]
HIV inhibition score (inactive, scored as zero) (HIV [5]): zero

T-cells Control (score) [1, 7]: 4+
SMILES: CN1C[C@H](O)[C@H](O)[C@H]1CO [Compound 6]
activity at 100 µg/mL (HIV [2]): 25%
cytotoxicity ([3]; dosage 0.1 mg/ml): 0%

SMILES: O[C@@H]1[C@@H](O)[C@@H](O)CN2CC[C@@H](O)[C@@H]12 [L-6-epicastanospermine]
inhibition of HIV / cytopathic effect (in words) (HIV [4]): neither the epimer L-1,6-diepicastanospermine nor the stereoisomer of castanospermine, L-6-epicastanospermine, were found to be inhibitory

T-cells Control (score) [1, 7]: 4+
SMILES: C[C@H]1[C@@H](O)[C@@H](O)[C@H](O)CN1C [Compound 11, 1,5-Dideoxy-1,5-imino-[N-methyl]-L-fucitol]
activity at 100 µg/mL (HIV [2]): 25%
cytotoxicity ([3]; dosage 0.1 mg/ml): 0%

SMILES: OC[C@H]1NC[C@@H](O)[C@@H](O)[C@@H]1O [deoxymannojirimycin (DMJ), 1,5-dideoxy-1,5-imino-D-mannitol]
effect on HIV / virion infectivity (in words) (HIV [4]): absence of effect
mannosidase I inhibition (in words) (mannosidase I): mannosidase I inhibitor
